# Results taken from patent US5663205A, “Pharmaceutical composition for use in glaucoma treatment” (Senju Pharmaceutical Co. Ltd., priority 1992, dated 1997).
# Tests used:
# [1] = system: Hypertensive Intraocular Pressure Induced by Laser Irradiation; experiment: Test Example 5: hypertensive intraocular pressure induced by laser irradiation, pigmented rabbits; assay type: in vivo; settings: 0.5% aqueous solution
# Experimental: Intraocular Pressure Reducing Activity of 0.5% Aqueous Solution of Amosulalol Hydrochloride on Hypertensive Intraocular Pressure Induced by Laser Irradiation in Pigmented Rabbits
# With 5 male pigmented rabbits weighing about 2 kg used as test animals, 50 μl of 0.5% aqueous solution of amosulalol hydrochloride was applied in a 50 μl portion to one eye of each rabbit, with 50 μl of physiological saline being given to the other. 30 min later, a laser beam was irradiated onto 6 different spots (spot size: 200 μm, power of 0.5 W, for 0.1 sec) of the irises in both eyes in such a manner that the spots were located at an equal distance. Intraocular pressure was measured for both eyes using PTG before instillation as well as before laser irradiation and 15, 30 and 45 min after laser irradiation.
# FIG. 7 is a graph showing the intraocular pressure reducing activity of 0.5% aqueous solution of amosulalol hydrochloride on hypertensive intraocular pressure induced by laser irradiation in pigmented rabbits, with time (min) after laser irradiation taken as abscissa and intraocular pressure (mmHg) as ordinate; each value in mean ± S.E. (the number in each case is 8). The signs "a" and "c" designate physiological saline and 0.5% aqueous solution of amosulalol hydrochloride, respectively.
# [2] = Test Example 6: freeze-thaw test, precipitation of crystals; assay type: physicochemical; settings: 0.5% aqueous solution (pH 5.5), left standing at room temperature
# Experimental: Investigation on the Processing of Amosulalol Hydrochloride into Ophthalmic Solution: Freeze-Thaw Test (Investigation on a Stabilizing Agent for the Ophthalmic Solution of Amosulalol Hydrochloride)
# Consequently, investigation was conducted on a stabilizing agent intended for use in the case of such freezing.
# 0.5% aqueous solution of amosulalol hydrochloride (pH 5.5), after being admixed with each of the stabilizing agents (Nos. 1 to 5) as described in Table 1 shown below, was filled into a glass ampoule of 5 ml capacity, frozen at -30° C. and left standing at room temperature to conduct inspection for the presence of crystals in it.
smiles,measurement,setting,value
"COc1ccccc1OCCNCC(O)c1ccc(C)c(S(N)(=O)=O)c1.Cl (stereo not shown) [amosulalol hydrochloride, 5-[1-hydroxy-2-[2-(2-methoxyphenoxy)ethylamino]ethyl]-2-methylbenzenesulfonamide hydrochloride]",decrease in intraocular pressure before laser irradiation,"[1]; 30 min after instillation, immediately before laser irradiation",4.5 mmHg
same,suppressory activity against increase of the intraocular pressure,[1]; laser irradiation,exhibits suppressory activity against increase of the intraocular pressure
same,intraocular pressure after laser irradiation,[1]; physiological saline increased by 7.9 mmHg about 15 min after irradiation,increased to almost the same level as before instillation
same,dissolution of crystals after freezing,[2],did not allow the crystals to dissolve
